# Patent US20060088502A1, “Drug for reducing side effects in ribavirin interferon combination therapy” (priority 2003, published 2006)
# Marks after values point to notes of the source that are not given here.
# Tested on: patients with chronic hepatitis C who had developed anemia due to ribavirin/IFN α combination therapy
# Type: in vivo, human
# Conditions: average of 6 cases; p < 0.05 vs. before EPA administration (10.8 g/dL)
# Protocol: After the onset of anemia, each patient received 600 mg of EPA-E (trade name: Epadel, manufactured by Mochida Pharmaceutical Co., Ltd.) three times a day by oral administration every after meal for 2 months. Depending on the disease cases, the time of starting the administration of EPA-E varied within the range from 1 to 4 months after the start of administration of ribavirin/IFN α. In the ribavirin/IFN α combination therapy, ribavirin (trade name: Rebetol, manufactured by Schering-Plough Corporation) was orally administered to each patient of over 60 kg in body weight at a dose of 400 mg every after morning meal and every after evening meal as well, and to each patient of 60 kg or less at a dose of 200 mg every after morning meal and 400 mg every after evening meal. Simultaneously, 6 million IU a day of IFN α-2b (trade name: Intron A, manufactured by Schering-Plough Corporation) was intramuscularly administered everyday for two weeks, followed by intermittent administration of three times a week for 22 weeks.
structure (smiles),measurement,value
"CC/C=C\C/C=C\C/C=C\C/C=C\C/C=C\CCCC(=O)OCC [EPA, eicosapentaenoic acid ethyl ester]","Hemoglobin level, average, after EPA administration for one month",11.4* g/dL
same,"Hemoglobin level, average, after EPA administration for two months",11.5* g/dL
